In paper PMC5218480 (PLoS ONE, 2017):

Tested on: MV-4-11 cells
Assay: Gene expression microarray analysis (Affymetrix PrimeView) and GSEA
Assay type: cell-based, human
Set-up: RFU PODN (11730768_x_at) / Fold change /veh PODN (11730768_x_at) / RFU LINC00158 (11744669_a_at) / Fold change /veh LINC00158 (11744669_a_at) / RFU DUSP10 (11751237_a_at) / Fold change /veh DUSP10 (11751237_a_at) / RFU ID3 (11757404_x_at) / Fold change /veh ID3 (11757404_x_at) / RFU PLEKHG5 (11737974_s_at) / Fold change /veh PLEKHG5 (11737974_s_at) / RFU LRRC4B (11730491_at) / Fold change /veh LRRC4B (11730491_at) / RFU GIMAP4 (11747438_a_at) / Fold change /veh GIMAP4 (11747438_a_at) / RFU KRT8 (11758183_x_at) / Fold change /veh KRT8 (11758183_x_at) / RFU CNN1 (11734310_a_at) / Fold change /veh CNN1 (11734310_a_at) / RFU VPS37D (11726825_at) / Fold change /veh VPS37D (11726825_at) / RFU C10orf10 (11716522_x_at) / Fold change /veh C10orf10 (11716522_x_at) / RFU KIR2DL2 /// KIR2DL4 /// KIR2DL5A /// KIR2DL5B /// KIR2DS1 /// KIR2DS2 /// KIR2DS3 /// KIR2DS4 /// KIR3DL3 /// KIR3DL3 /// KIR3DS1 (11738374_at) / Fold change /veh KIR2DL2 /// KIR2DL4 /// KIR2DL5A /// KIR2DL5B /// KIR2DS1 /// KIR2DS2 /// KIR2DS3 /// KIR2DS4 /// KIR3DL3 /// KIR3DL3 /// KIR3DS1 (11738374_at) / RFU C1QL1 (11718748_at) / Fold change /veh C1QL1 (11718748_at) / RFU TMPRSS4 (11747572_a_at) / Fold change /veh TMPRSS4 (11747572_a_at) / RFU HAMP (11756126_x_at) / Fold change /veh HAMP (11756126_x_at) / RFU RNFT2 (11725882_a_at) / Fold change /veh RNFT2 (11725882_a_at) / RFU NR4A2 (11747474_a_at) / Fold change /veh NR4A2 (11747474_a_at) / RFU ABCC12 (11746883_a_at) / Fold change /veh ABCC12 (11746883_a_at) / RFU TMEM136 (11760407_x_at) / Fold change /veh TMEM136 (11760407_x_at) / RFU CLDN22 /// WWC2 (11732394_at) / Fold change /veh CLDN22 /// WWC2 (11732394_at) / RFU HLA-DPB1 (11760878_x_at) / Fold change /veh HLA-DPB1 (11760878_x_at) / RFU SPINT1 (11716480_a_at) / Fold change /veh SPINT1 (11716480_a_at) / RFU GAP43 (11754022_s_at) / Fold change /veh GAP43 (11754022_s_at) / RFU A4GNT (11735810_at) / Fold change /veh A4GNT (11735810_at) / RFU PRB3 (11715151_x_at) / Fold change /veh PRB3 (11715151_x_at) / RFU TUBB4B (11761932_at) / Fold change /veh TUBB4B (11761932_at) / RFU CAPN14 (11732068_a_at) / Fold change /veh CAPN14 (11732068_a_at) / RFU TMCC2 (11721928_a_at) / Fold change /veh TMCC2 (11721928_a_at) / RFU IRGQ (11745062_a_at) / Fold change /veh IRGQ (11745062_a_at) / RFU FAM174B (11720279_a_at) / Fold change /veh FAM174B (11720279_a_at) / RFU TMPRSS4 (11748680_a_at) / Fold change /veh TMPRSS4 (11748680_a_at) / RFU FAM212B (11763350_a_at) / Fold change /veh FAM212B (11763350_a_at) / RFU PLEKHG5 (11743358_a_at) / Fold change /veh PLEKHG5 (11743358_a_at) / RFU ZSCAN30 (11745921_a_at) / Fold change /veh ZSCAN30 (11745921_a_at) / RFU CMKLR1 (11741424_a_at) / Fold change /veh CMKLR1 (11741424_a_at) / RFU LOC101060620 /// MAPK8IP1 (11723275_at) / Fold change /veh LOC101060620 /// MAPK8IP1 (11723275_at) / RFU SPTSSB (11747773_x_at) / Fold change /veh SPTSSB (11747773_x_at) / RFU PRSS12 (11739890_at) / Fold change /veh PRSS12 (11739890_at) / RFU BIN1 (11741810_x_at) / Fold change /veh BIN1 (11741810_x_at) / RFU WNT11 (11732464_a_at) / Fold change /veh WNT11 (11732464_a_at) / RFU C10orf10 (11716521_a_at) / Fold change /veh C10orf10 (11716521_a_at) / RFU C5orf56 (11738089_at) / Fold change /veh C5orf56 (11738089_at) / RFU CYB561 (11721691_x_at) / Fold change /veh CYB561 (11721691_x_at) / RFU ANKRD19P (11752326_a_at) / Fold change /veh ANKRD19P (11752326_a_at) / RFU OR2T12 /// OR2T33 /// OR2T8 (11738714_s_at) / Fold change /veh OR2T12 /// OR2T33 /// OR2T8 (11738714_s_at) / RFU VCAN (11748164_a_at) / Fold change /veh VCAN (11748164_a_at) / RFU JSRP1 (11732532_at) / Fold change /veh JSRP1 (11732532_at) / RFU KRTAP10-11 (11738290_x_at) / Fold change /veh KRTAP10-11 (11738290_x_at) / RFU MYO3A (11730013_a_at) / Fold change /veh MYO3A (11730013_a_at) / RFU EBF3 (11725865_a_at) / Fold change /veh EBF3 (11725865_a_at) / RFU CAMK2N1 (11719241_x_at) / Fold change /veh CAMK2N1 (11719241_x_at) / RFU C5orf56 (11738088_a_at) / Fold change /veh C5orf56 (11738088_a_at) / RFU OLFML3 (11715873_a_at) / Fold change /veh OLFML3 (11715873_a_at) / RFU LOC100653217 /// NTM (11731650_a_at) / Fold change /veh LOC100653217 /// NTM (11731650_a_at) / RFU MAPK11 (11762145_a_at) / Fold change /veh MAPK11 (11762145_a_at) / RFU FIZ1 (11724087_x_at) / Fold change /veh FIZ1 (11724087_x_at) / RFU OASL (11726364_x_at) / Fold change /veh OASL (11726364_x_at) / RFU SOX15 (11748057_x_at) / Fold change /veh SOX15 (11748057_x_at) / RFU CD79A (11719716_a_at) / Fold change /veh CD79A (11719716_a_at) / RFU HIST1H1D (11736915_at) / Fold change /veh HIST1H1D (11736915_at) / RFU CASKIN2 (11723855_a_at) / Fold change /veh CASKIN2 (11723855_a_at) / RFU LOC730098 (11760151_x_at) / Fold change /veh LOC730098 (11760151_x_at) / RFU OR4N2 (11742367_at) / Fold change /veh OR4N2 (11742367_at) / RFU PRRT2 (11749266_a_at) / Fold change /veh PRRT2 (11749266_a_at) / RFU SNX32 (11753110_a_at) / Fold change /veh SNX32 (11753110_a_at) / RFU CDHR5 (11726645_a_at) / Fold change /veh CDHR5 (11726645_a_at) / RFU RCAN1 (11760418_a_at) / Fold change /veh RCAN1 (11760418_a_at) / RFU FAM167A (11723789_a_at) / Fold change /veh FAM167A (11723789_a_at) / RFU FAM26E (11764081_at) / Fold change /veh FAM26E (11764081_at) / RFU ISYNA1 (11749810_s_at) / Fold change /veh ISYNA1 (11749810_s_at) / RFU ACY1 (11761880_at) / Fold change /veh ACY1 (11761880_at) / RFU 11764098_at / Fold change /veh 11764098_at / RFU SAMD14 (11745864_x_at) / Fold change /veh SAMD14 (11745864_x_at) / RFU NPB (11741838_a_at) / Fold change /veh NPB (11741838_a_at) / RFU TMPRSS6 (11731388_a_at) / Fold change /veh TMPRSS6 (11731388_a_at) / RFU KRTAP10-2 (11738614_at) / Fold change /veh KRTAP10-2 (11738614_at) / RFU ARHGAP8 /// PRR5-ARHGAP8 (11727945_x_at) / Fold change /veh ARHGAP8 /// PRR5-ARHGAP8 (11727945_x_at) / RFU KRTAP5-7 /// NADSYN1 (11734609_at) / Fold change /veh KRTAP5-7 /// NADSYN1 (11734609_at) / RFU RASL12 (11751679_a_at) / Fold change /veh RASL12 (11751679_a_at) / RFU CDKN2B (11736163_a_at) / Fold change /veh CDKN2B (11736163_a_at) / RFU PRF1 (11729649_at) / Fold change /veh PRF1 (11729649_at) / RFU, ZNF638 /// ZNF638-IT1 / Fold change vs veh, ZNF638 /// ZNF638-IT1 / RFU, PANK3 / Fold change vs veh, PANK3 / RFU, SH3YL1 / Fold change vs veh, SH3YL1 / RFU, ZEB2 / Fold change vs veh, ZEB2 / RFU, NRIP1 / Fold change vs veh, NRIP1 / RFU, PTTG1IP / Fold change vs veh, PTTG1IP / RFU, CAPN2 / Fold change vs veh, CAPN2 / RFU, MED14 / Fold change vs veh, MED14 / RFU, SNORA58 / Fold change vs veh, SNORA58 / RFU, C1orf63 / Fold change vs veh, C1orf63 / RFU, LRRFIP1 / Fold change vs veh, LRRFIP1 / RFU, NDUFAF7 / Fold change vs veh, NDUFAF7 / RFU, SLC12A2 / Fold change vs veh, SLC12A2 / RFU, IBTK / Fold change vs veh, IBTK / RFU, ESF1 / Fold change vs veh, ESF1 / Fold change vs veh, TMEM50B / RFU, TAOK1 / Fold change vs veh, TAOK1 / RFU, ACBD3 / Fold change vs veh, ACBD3 / RFU, TMA16 / Fold change vs veh, TMA16 / RFU, RWDD3 / Fold change vs veh, RWDD3 / RFU, BCAT1 / Fold change vs veh, BCAT1 / RFU, EDEM3 / Fold change vs veh, EDEM3 / RFU, TMEM33 / Fold change vs veh, TMEM33 / RFU, WDR75 / Fold change vs veh, WDR75 / RFU, AHCTF1 / Fold change vs veh, AHCTF1 / RFU, TFRC / Fold change vs veh, TFRC / RFU, ZDHHC17 / Fold change vs veh, ZDHHC17 / RFU, NOM1 / Fold change vs veh, NOM1 / RFU, ARL8B / Fold change vs veh, ARL8B / RFU, ZBTB11 / Fold change vs veh, ZBTB11 / RFU, TAMM41 / Fold change vs veh, TAMM41 / RFU, KIAA1704 /// LOC100996395 / Fold change vs veh, KIAA1704 /// LOC100996395 / RFU, ING1 / Fold change vs veh, ING1 / RFU, TRMT61B / Fold change vs veh, TRMT61B / RFU, FUBP3 / Fold change vs veh, FUBP3 / RFU, TP53 / Fold change vs veh, TP53 / RFU, TNKS2 / Fold change vs veh, TNKS2 / RFU, ZFP14 / Fold change vs veh, ZFP14 / RFU, ACTR2 / Fold change vs veh, ACTR2 / RFU, PPP3R1 / Fold change vs veh, PPP3R1 / RFU, PIK3R1 / Fold change vs veh, PIK3R1 / RFU, HNRNPA1 / Fold change vs veh, HNRNPA1 / RFU, RNF170 / Fold change vs veh, RNF170 / RFU, ZNF28 / Fold change vs veh, ZNF28 / RFU, RNGTT / Fold change vs veh, RNGTT / RFU, OGT / Fold change vs veh, OGT / RFU, BRD1 / Fold change vs veh, BRD1 / RFU, MARS / Fold change vs veh, MARS / RFU, ZNF655 / Fold change vs veh, ZNF655 / RFU, FAHD1 / Fold change vs veh, FAHD1 / RFU, BDP1 / Fold change vs veh, BDP1 / RFU, LRRCC1 / Fold change vs veh, LRRCC1 / RFU, ARID1A / Fold change vs veh, ARID1A / RFU, ZNF146 / Fold change vs veh, ZNF146 / RFU, ZNF330 / Fold change vs veh, ZNF330 / RFU, GPN3 / Fold change vs veh, GPN3 / RFU, C9orf123 / Fold change vs veh, C9orf123 / RFU, N4BP2L2 / Fold change vs veh, N4BP2L2 / RFU, ARFIP1 / Fold change vs veh, ARFIP1 / RFU, FAM179B / Fold change vs veh, FAM179B / RFU, BCL10 / Fold change vs veh, BCL10 / RFU, UHRF1BP1L / Fold change vs veh, UHRF1BP1L / RFU, BET1 / Fold change vs veh, BET1 / RFU, CNOT2 / Fold change vs veh, CNOT2 / RFU, ZNF268 / Fold change vs veh, ZNF268 / Fold change vs veh, ZNF507 / RFU, DGCR2 / Fold change vs veh, DGCR2 / RFU, WDSUB1 / Fold change vs veh, WDSUB1 / Fold change vs veh, HSP90B1 /// MIR3652 / RFU, ADSS / Fold change vs veh, ADSS / RFU, GK / Fold change vs veh, GK / RFU, ZNF148 / Fold change vs veh, ZNF148 / RFU, TAF9 / Fold change vs veh, TAF9 / RFU, SLC1A5 / Fold change vs veh, SLC1A5 / RFU, SLMO2 / Fold change vs veh, SLMO2 / RFU, ABCC4 / Fold change vs veh, ABCC4 / RFU, LOC101060439 /// RAP1B / Fold change vs veh, LOC101060439 /// RAP1B / RFU, RFX7 / Fold change vs veh, RFX7 / RFU, GTPBP10 / Fold change vs veh, GTPBP10 / RFU, CNEP1R1 / Fold change vs veh, CNEP1R1 / RFU, BIVM-ERCC5 /// ERCC5 / Fold change vs veh, BIVM-ERCC5 /// ERCC5 / RFU, ILF3 / Fold change vs veh, ILF3 / RFU 11762660_at / Fold change /veh 11762660_at / RFU VCAN (11757783_s_at) / Fold change /veh VCAN (11757783_s_at) / RFU DDX43 (11728927_at) / Fold change /veh DDX43 (11728927_at) / RFU KRT8 (11758188_x_at) / Fold change /veh KRT8 (11758188_x_at) / RFU NKD1 (11759106_at) / Fold change /veh NKD1 (11759106_at) / RFU SRD5A1 (11742802_a_at) / Fold change /veh SRD5A1 (11742802_a_at) / RFU TPSAB1 /// TPSB2 (11721975_s_at) / Fold change /veh TPSAB1 /// TPSB2 (11721975_s_at) / RFU GSTM3 (11746129_a_at) / Fold change /veh GSTM3 (11746129_a_at) / RFU IL23R (11737362_x_at) / Fold change /veh IL23R (11737362_x_at) / RFU TMEM51 (11727254_a_at) / Fold change /veh TMEM51 (11727254_a_at) / RFU PIWIL2 (11732686_x_at) / Fold change /veh PIWIL2 (11732686_x_at) / RFU ORM1 (11744905_x_at) / Fold change /veh ORM1 (11744905_x_at) / RFU CCDC152 (11743942_at) / Fold change /veh CCDC152 (11743942_at) / RFU ECM1 (11717891_a_at) / Fold change /veh ECM1 (11717891_a_at) / RFU IL23R (11748794_a_at) / Fold change /veh IL23R (11748794_a_at) / RFU TNFAIP8L3 (11732012_x_at) / Fold change /veh TNFAIP8L3 (11732012_x_at) / RFU MBOAT4 (11741988_at) / Fold change /veh MBOAT4 (11741988_at) / RFU 11764193_at / Fold change /veh 11764193_at / RFU TMEM53 (11763286_at) / Fold change /veh TMEM53 (11763286_at) / RFU MAGEB2 (11727129_at) / Fold change /veh MAGEB2 (11727129_at) / RFU TMEM200A (11744735_a_at) / Fold change /veh TMEM200A (11744735_a_at) / RFU CCDC152 (11751479_a_at) / Fold change /veh CCDC152 (11751479_a_at) / RFU FAM211A (11726209_a_at) / Fold change /veh FAM211A (11726209_a_at) / RFU RGS16 (11746705_a_at) / Fold change /veh RGS16 (11746705_a_at) / RFU VCAN (11755009_s_at) / Fold change /veh VCAN (11755009_s_at) / RFU RHOB (11743442_s_at) / Fold change /veh RHOB (11743442_s_at) / RFU RGS16 (11720943_a_at) / Fold change /veh RGS16 (11720943_a_at) / RFU RGS16 (11720944_at) / Fold change /veh RGS16 (11720944_at) / RFU, VPS4B / Fold change vs veh, VPS4B / RFU, CREB1 / Fold change vs veh, CREB1 / RFU, DNAJC13 / Fold change vs veh, DNAJC13 / RFU, GNAQ / Fold change vs veh, GNAQ / RFU, CDK5R1 / Fold change vs veh, CDK5R1 / RFU, ZRANB3 / Fold change vs veh, ZRANB3 / RFU, CUL4A / Fold change vs veh, CUL4A / RFU, CCNY / Fold change vs veh, CCNY / RFU, UFL1 / Fold change vs veh, UFL1 / RFU, COG3 / Fold change vs veh, COG3 / RFU, DIAPH2 / Fold change vs veh, DIAPH2 / RFU, SKA2 / Fold change vs veh, SKA2 / RFU, AFF3 / Fold change vs veh, AFF3 / RFU, LMF1 / Fold change vs veh, LMF1 / RFU, IPO11 / Fold change vs veh, IPO11 / RFU, DFFB / Fold change vs veh, DFFB / RFU, FOXP1 / Fold change vs veh, FOXP1 / RFU, CARD8 / Fold change vs veh, CARD8 / RFU, STRN3 / Fold change vs veh, STRN3 / RFU, ADK / Fold change vs veh, ADK / RFU, RASSF2 / Fold change vs veh, RASSF2 / RFU, WIPF1 / Fold change vs veh, WIPF1 / RFU, LARP1B / Fold change vs veh, LARP1B / RFU, RASA1 / Fold change vs veh, RASA1 / RFU, RB1 / Fold change vs veh, RB1 / RFU, PPFIA1 / Fold change vs veh, PPFIA1 / RFU, MAT2A / Fold change vs veh, MAT2A / RFU, CCT5 / Fold change vs veh, CCT5 / RFU, WDR92 / Fold change vs veh, WDR92 / RFU, CUX1 / Fold change vs veh, CUX1 / RFU, TTC7A / Fold change vs veh, TTC7A / RFU, TMEM135 / Fold change vs veh, TMEM135 / RFU, DEPTOR / Fold change vs veh, DEPTOR / RFU, CPM / Fold change vs veh, CPM / RFU, DNAJB6 / Fold change vs veh, DNAJB6 / RFU, CACNA2D3 / Fold change vs veh, CACNA2D3 / RFU, DTX4 / Fold change vs veh, DTX4 / RFU, TFCP2 / Fold change vs veh, TFCP2 / RFU, GMCL1 /// GMCL1P1 / Fold change vs veh, GMCL1 /// GMCL1P1 / RFU, AEBP2 / Fold change vs veh, AEBP2 / RFU, SNHG1 /// SNORD22 /// SNORD25 /// SNORD26 /// SNORD27 /// SNORD28 /// SNORD29 /// SNORD31 / Fold change vs veh, SNHG1 /// SNORD22 /// SNORD25 /// SNORD26 /// SNORD27 /// SNORD28 /// SNORD29 /// SNORD31 / Fold change (Aza/veh), C12orf56 (ProbeSet 11735607_a_at) / Fold change (ACY-1035/veh), C12orf56 (ProbeSet 11735607_a_at) / Fold change (Aza/veh), FGFR1OP (ProbeSet 11751329_s_at) / Fold change (ACY-1035/veh), FGFR1OP (ProbeSet 11751329_s_at) / Fold change (Aza/veh), VPS36 (ProbeSet 11739960_a_at) / Fold change (ACY-1035/veh), VPS36 (ProbeSet 11739960_a_at) / RFU SYPL1 (11715823_x_at) / Fold change /veh SYPL1 (11715823_x_at) / RFU IGFBP7 (11715501_s_at) / Fold change /veh IGFBP7 (11715501_s_at) / RFU REEP3 (11722064_at) / Fold change /veh REEP3 (11722064_at) / RFU IGLL1 (11728026_x_at) / Fold change /veh IGLL1 (11728026_x_at): dose or concentration left out as unconfirmed
Conditions: ProbeSet 11715478_a_at; LIST B

Nc1ccc(-c2cccs2)cc1NC(=O)c1ccc2c(c1)cc(C1CC1)n2CCN1CCOCC1 [ACY-1035]
RFU, TFRC: 135.12 RFU
